Measurements from patent publication US20240343704A1, “HALO-SUBSTITUTED AMINO PYRIDINE COMPOUNDS AS INHIBITORS OF THE HAEMATOPOIETIC PROGENITOR KINASE 1 (HPK1)” (priority 2021, published 2024).

Tests used:
[1] = target: T1, Recombinant (1-346) HPK1 (h) (Homo sapiens, UniProt Q92918); experiment: HPK1 Human STE Kinase Enzymatic Radiometric Assay; type: biochemical; settings: read-out: HPK1 IC50 nM Range*
T1 construct: Recombinant (1-346) HPK1 (h) is incubated with 8 mM MOPS pH 7.0
T1 sequence (Q92918 1-346): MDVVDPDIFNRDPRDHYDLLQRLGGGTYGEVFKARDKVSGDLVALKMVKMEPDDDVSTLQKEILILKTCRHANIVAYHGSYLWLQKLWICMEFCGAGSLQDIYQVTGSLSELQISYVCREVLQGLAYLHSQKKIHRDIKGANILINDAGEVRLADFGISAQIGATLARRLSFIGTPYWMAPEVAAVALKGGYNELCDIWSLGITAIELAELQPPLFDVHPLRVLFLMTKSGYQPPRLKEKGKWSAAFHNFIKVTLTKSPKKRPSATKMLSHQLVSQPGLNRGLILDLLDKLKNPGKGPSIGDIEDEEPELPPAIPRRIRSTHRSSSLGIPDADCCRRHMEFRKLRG
Method: A stock solution of 10 mM of test compound is prepared in DMSO. The compound plate was prepared by 3-fold and 9-point serial dilutions. […] The reaction is initiated by The addition of the Mg/ATP mix. After incubation for 40 minutes at RT, the reaction is stopped by the addition of phosphoric acid to a concentration of 0.5%.

[2] = target: Lck (h) (Homo sapiens, UniProt P06239); experiment: Lck Human  Kinase Enzymatic Radiometric Assay; type: biochemical; settings: read-out: Lck IC50 nM Range*
Sequence of Lck (h) (P06239 whole entry): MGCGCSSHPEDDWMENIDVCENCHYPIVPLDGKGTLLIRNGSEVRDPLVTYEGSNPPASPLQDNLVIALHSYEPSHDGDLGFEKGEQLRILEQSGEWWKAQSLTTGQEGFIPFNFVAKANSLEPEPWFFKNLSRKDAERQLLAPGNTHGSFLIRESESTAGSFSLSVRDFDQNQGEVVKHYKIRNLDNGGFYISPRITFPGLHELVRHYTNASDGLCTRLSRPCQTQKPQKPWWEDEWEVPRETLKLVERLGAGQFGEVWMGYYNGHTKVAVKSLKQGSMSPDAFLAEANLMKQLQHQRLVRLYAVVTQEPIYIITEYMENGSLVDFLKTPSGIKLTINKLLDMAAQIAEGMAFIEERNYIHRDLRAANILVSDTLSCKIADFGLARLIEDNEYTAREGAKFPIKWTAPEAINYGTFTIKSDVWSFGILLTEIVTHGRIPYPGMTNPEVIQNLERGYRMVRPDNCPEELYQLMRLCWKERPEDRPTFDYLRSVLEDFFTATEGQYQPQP
How it was run: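 Substrate 33P-incorporation measured by scintillation counting after spotting on P30 filtermat and phosphoric acid washes. Human Lck reacted 40 min at RT in 50 mM Tris pH 7.5 with 10 mM MgAcetate, [gamma-33P]-ATP, 250 uM Cdc2 peptide, 0.1 mM EGTA and 0.1 mM Na3VO4.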

| Compound | IC50 [1] | IC50 [2] |
| --- | --- | --- |
| CN(C)Cc1cc(-c2cc(-c3ccc4c(c3)CCNC4=O)c(N)nc2F)ccc1N1CCN(CCCC(F)F)CC1 [I-445, 6-(2-amino-5-(4-(4-(4,4-difluorobutyl)piperazin-1-yl)-3-((dimethylamino)methyl)phenyl)-6-fluoropyridin-3-yl)-3,4-dihydroisoquinolin-1(2H)-one] | 0.1 to 10 nM | > 1000 nM |
| Cc1cc(-c2cc(-c3ccc4c(c3)CCNC4=O)c(N)nc2F)cc2c1CCN(CCCC(F)F)C2 [I-446, 6-(2-amino-5-(2-(4,4-difluorobutyl)-5-methyl-1,2,3,4-tetrahydroisoquinolin-7-yl)-6-fluoropyridin-3-yl)-3,4-dihydroisoquinolin-1(2H)-one] | 0.1 to 10 nM | > 1000 nM |
| Nc1nc(F)c(-c2ccc(N3CCC4(CC3)CN(C3CCC3)C4)cc2)cc1-c1cc2c(cc1F)C(=O)NCC2 [I-449, 6-(2-amino-5-(4-(2-cyclobutyl-2,7-diazaspiro[3.5]nonan-7-yl)phenyl)-6-fluoropyridin-3-yl)-7-fluoro-3,4-dihydroisoquinolin-1(2H)-one] | 0.1 to 10 nM | > 1000 nM |
| CN(C)Cc1cc(-c2cc(-c3ccc4c(c3)CCNC4=O)c(N)nc2F)ccc1N1CCN(C2CCCC2)CC1 [I-451, 6-(2-amino-5-(4-(4-cyclopentylpiperazin-1-yl)-3-((dimethylamino)methyl)phenyl)-6-fluoropyridin-3-yl)-3,4-dihydroisoquinolin-1(2H)-one] | 0.1 to 10 nM | > 1000 nM |
| Cc1cc2cc(-c3cc(-c4ccc(N5CCN(CC6CC6)CC5)cc4)c(F)nc3N)cc(F)c2c(=O)[nH]1 [I-454, 6-(2-amino-5-(4-(4-(cyclopropylmethyl)piperazin-1-yl)phenyl)-6-fluoropyridin-3-yl)-8-fluoro-3-methylisoquinolin-1(2H)-one] | 0.1 to 10 nM | > 1000 nM |
| Nc1nc(F)c(-c2ccc(N3CCN(CC4CC4)CC3)cc2)cc1-c1ccc2c(=O)[nH]cc(F)c2c1 [I-455, 6-(2-amino-5-(4-(4-(cyclopropylmethyl)piperazin-1-yl)phenyl)-6-fluoropyridin-3-yl)-4-fluoroisoquinolin-1(2H)-one] | 0.1 to 10 nM | > 1000 nM |
| Cc1c[nH]c(=O)c2ccc(-c3cc(-c4ccc(N5CCN(CC6CC6)CC5)cc4)c(F)nc3N)cc12 [I-457, 6-(2-amino-5-(4-(4-(cyclopropylmethyl)piperazin-1-yl)phenyl)-6-fluoropyridin-3-yl)-4-methylisoquinolin-1(2H)-one] | 0.1 to 10 nM | > 1000 nM |
| Cc1[nH]c(=O)c2c(F)cc(-c3cc(-c4ccc(N5CCN(C(C)C)CC5)cc4)c(F)nc3N)cc2c1F [I-481, 6-(2-amino-6-fluoro-5-(4-(4-isopropylpiperazin-1-yl)phenyl)pyridin-3-yl)-4,8-difluoro-3-methylisoquinolin-1(2H)-one] | 0.1 to 10 nM | > 1000 nM |
| CN(C)Cc1cc(-c2cc(-c3ccc4c(=O)[nH]cc(F)c4c3)c(N)nc2F)ccc1C1CCOCC1 [I-503, 6-(2-amino-5-(3-((dimethylamino)methyl)-4-(tetrahydro-2H-pyran-4-yl)phenyl)-6-fluoropyridin-3-yl)-4-fluoroisoquinolin-1(2H)-one] | 0.1 to 10 nM | > 1000 nM |
| COC1CCN(Cc2cc(-c3cc(-c4cc5c(cc4F)C(=O)NCC5)c(N)nc3F)ccc2N2CCOCC2)C1 (stereo not drawn) [I-543, 6-(2-amino-6-fluoro-5-(3-((3-methoxypyrrolidin-1-yl)methyl)-4-morpholinophenyl)pyridin-3-yl)-7-fluoro-3,4-dihydroisoquinolin-1(2H)-one] | 0.1 to 10 nM | 11 to 100 nM |
| Nc1nc(F)c(-c2ccc(N3CCN(CC4CC4)CC3)cc2)cc1-c1cc2c(F)c[nH]c(=O)c2cc1F [I-548, 6-(2-amino-5-(4-(4-(cyclopropylmethyl)piperazin-1-yl)phenyl)-6-fluoropyridin-3-yl)-4,7-difluoroisoquinolin-1(2H)-one] | 0.1 to 10 nM | > 1000 nM |
| CN(C)Cc1nc(-c2cc(-c3ccc4c(c3)CCNC4=O)c(N)nc2F)ccc1N1CCOCC1 [I-551, 6-(6′-amino-6-((dimethylamino)methyl)-2′-fluoro-5-morpholino-[2,3′-bipyridin]-5′-yl)-3,4-dihydroisoquinolin-1(2H)-one] | 0.1 to 10 nM | > 1000 nM |
| CCN(C)Cc1nc(-c2cc(-c3ccc4c(c3)CCNC4=O)c(N)nc2F)ccc1N1CCOCC1 [I-580, 6-(6′-amino-6-((ethyl(methyl)amino)methyl)-2′-fluoro-5-morpholino-[2,3′-bipyridin]-5′-yl)-3,4-dihydroisoquinolin-1(2H)-one] | 0.1 to 10 nM | > 1000 nM |
| CC(=O)N1CCN(c2ccc(-c3cc(-c4ccc5c(c4)CCNC5=O)c(N)nc3F)nc2)CC1 [I-591, 6-(5-(4-acetylpiperazin-1-yl)-6′-amino-2′-fluoro-[2,3′-bipyridin]-5′-yl)-3,4-dihydroisoquinolin-1(2H)-one] | 0.1 to 10 nM | > 1000 nM |
| Nc1nc(F)c(-c2ccc(N3CCOCC3)c(CN3CCC3)c2F)cc1-c1ccc2c(c1)CCNC2=O [I-609, 6-(2-amino-5-(3-(azetidin-1-ylmethyl)-2-fluoro-4-morpholinophenyl)-6-fluoropyridin-3-yl)-3,4-dihydroisoquinolin-1(2H)-one] | 11 to 100 nM | > 1000 nM |
